Results as given in ChEMBL document CHEMBL3217578, “Synthesis of a novel thiophene derivative that induces cancer cell apoptosis through modulation of AKT and MAPK pathways” (Medchemcomm, 2012).
≈ marks a conversion by molar mass, not a printed value. Calls of active or inactive are those of the source. No cut-off for these calls is given here.

Assays:
[1] = (§1) Cytotoxicity against mouse Neuro2a cells after 72 hrs by MTT assay; assay type: functional, cell-based; conditions: N2a
[2] = Cytotoxicity against human MG63 cells after 72 hrs by MTT assay; assay type: functional, cell-based; conditions: MG-63, 72 h
[3] = Cytotoxicity against human HeLa 229 cells after 72 hrs by MTT assay; assay type: functional, cell-based; conditions: HeLa 229, 72 h
A-375 = assay: Cytotoxicity against human A375 cells after 72 hrs by MTT assay; assay type: functional, cell-based; conditions: A-375, 72 h
PC-3 = assay: Cytotoxicity against human PC3 cells after 72 hrs by MTT assay; assay type: functional, cell-based; conditions: PC-3, 72 h
[4] = Cytotoxicity against human HK2 cells after 72 hrs by MTT assay; assay type: cell-based; conditions: HK-2, 72 h
N2a [5] = assay: Induction of apoptosis in mouse Neuro2a cells assessed as activation of caspase-3 at 8 ug/ml using Ac-[…]-AFC as substrate by fluorometric assay relative to control; assay type: functional
N2a [6] = assay: Induction of apoptosis in mouse Neuro2a cells assessed as reduction of ROS production after 3 hrs by DCF fluorescence assay; assay type: functional, cell-based
N2a [7] = assay: Cytotoxicity against mouse Neuro2a cells at 8 ug/ml after 24 hrs by MTT assay in presence of NAC; assay type: functional, cell-based
[8] = Antioxidant activity assessed as ABTS free radical scavenging activity; assay type: functional; conditions: TDE = time-dependent effect
[9] = target: RAC-alpha serine/threonine-protein kinase (Mus musculus) (UniProt P31750); assay: Inhibition of AKT phosphorylation in mouse Neuro2a cells after 24 hrs by Western blot analysis; assay type: cell-based
Chain of RAC-alpha serine/threonine-protein kinase (Mus musculus) (P31750 whole entry): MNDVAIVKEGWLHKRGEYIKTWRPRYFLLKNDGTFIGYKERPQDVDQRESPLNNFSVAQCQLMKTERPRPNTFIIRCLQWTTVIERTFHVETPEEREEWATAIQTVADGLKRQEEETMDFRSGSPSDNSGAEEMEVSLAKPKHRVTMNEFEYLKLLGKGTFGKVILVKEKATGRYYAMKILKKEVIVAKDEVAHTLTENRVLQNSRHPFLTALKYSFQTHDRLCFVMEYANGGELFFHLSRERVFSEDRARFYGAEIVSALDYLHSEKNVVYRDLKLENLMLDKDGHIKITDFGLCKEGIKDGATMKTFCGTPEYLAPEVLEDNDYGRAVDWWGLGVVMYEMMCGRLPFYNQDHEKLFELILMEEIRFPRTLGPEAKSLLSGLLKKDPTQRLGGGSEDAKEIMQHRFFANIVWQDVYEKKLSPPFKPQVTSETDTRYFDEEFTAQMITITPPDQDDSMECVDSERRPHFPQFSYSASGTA

[10] = target: RAC-alpha serine/threonine-protein kinase (Mus musculus) (UniProt P31750); assay: Inhibition of AKT phosphorylation in mouse Neuro2a cells assessed as total protein level after 24 hrs by Western blot analysis; assay type: cell-based
Neuro2a [11] = assay: Inhibition of ERK phosphorylation in mouse Neuro2a cells at 2 ug/ml after 24 hrs by Western blot analysis relative to beta-actin; assay type: cell-based
Neuro2a [12] = assay: Inhibition of ERK phosphorylation in mouse Neuro2a cells assessed as total protein level at 2 ug/ml after 24 hrs by Western blot analysis relative to beta-actin; assay type: cell-based
Neuro2a [13] = assay: Inhibition of JNK phosphorylation in mouse Neuro2a cells at 2 ug/ml after 24 hrs by Western blot analysis relative to beta-actin; assay type: cell-based
[14] = target: T1, MAP kinase p38 (Mus musculus) (UniProt P47811+O08911+Q9WUI1+Q9Z1B7); assay: Inhibition of p38 phosphorylation in mouse Neuro2a cells at 2 to 8 ug/ml after 24 hrs by Western blot analysis; assay type: cell-based
Neuro2a [15] = assay: Inhibition of JNK phosphorylation in mouse Neuro2a cells assessed as total protein level at 2 to 8 ug/ml after 24 hrs by Western blot analysis; assay type: cell-based
[16] = target: RAC-alpha serine/threonine-protein kinase (Mus musculus) (UniProt P31750); assay: Inhibition of AKT phosphorylation in mouse Neuro2a cells at 2 ug/ml after 24 hrs by Western blot analysis relative to beta-actin; assay type: cell-based
[17] = target: RAC-alpha serine/threonine-protein kinase (Mus musculus) (UniProt P31750); assay: Inhibition of AKT phosphorylation in mouse Neuro2a cells at 4 ug/ml after 24 hrs by Western blot analysis relative to beta-actin; assay type: cell-based
[18] = target: RAC-alpha serine/threonine-protein kinase (Mus musculus) (UniProt P31750); assay: Inhibition of AKT phosphorylation in mouse Neuro2a cells at 8 ug/ml after 24 hrs by Western blot analysis relative to beta-actin; assay type: cell-based
[19] = target: RAC-alpha serine/threonine-protein kinase (Mus musculus) (UniProt P31750); assay: Inhibition of AKT phosphorylation in mouse Neuro2a cells assessed as total protein level at 2 ug/ml after 24 hrs by Western blot analysis relative to beta-actin; assay type: cell-based
[20] = target: RAC-alpha serine/threonine-protein kinase (Mus musculus) (UniProt P31750); assay: Inhibition of AKT phosphorylation in mouse Neuro2a cells assessed as total protein level at 4 ug/ml after 24 hrs by Western blot analysis relative to beta-actin; assay type: cell-based
[21] = target: RAC-alpha serine/threonine-protein kinase (Mus musculus) (UniProt P31750); assay: Inhibition of AKT phosphorylation in mouse Neuro2a cells assessed as total protein level at 8 ug/ml after 24 hrs by Western blot analysis relative to beta-actin; assay type: cell-based
Neuro2a [22] = assay: Inhibition of ERK phosphorylation in mouse Neuro2a cells at 4 ug/ml after 24 hrs by Western blot analysis relative to beta-actin; assay type: cell-based
Neuro2a [23] = assay: Inhibition of ERK phosphorylation in mouse Neuro2a cells at 8 ug/ml after 24 hrs by Western blot analysis relative to beta-actin; assay type: cell-based
Neuro2a [24] = assay: Inhibition of ERK phosphorylation in mouse Neuro2a cells assessed as total protein level at 4 ug/ml after 24 hrs by Western blot analysis relative to beta-actin; assay type: cell-based
Neuro2a [25] = assay: Inhibition of ERK phosphorylation in mouse Neuro2a cells assessed as total protein level at 8 ug/ml after 24 hrs by Western blot analysis relative to beta-actin; assay type: cell-based
[26] = target: T1, MAP kinase p38 (Mus musculus); assay: Inhibition of p38 phosphorylation in mouse Neuro2a cells assessed as total protein level at 2 ug/ml after 24 hrs by Western blot analysis relative to beta-actin; assay type: cell-based
Neuro2a [27] = assay: Inhibition of JNK phosphorylation in mouse Neuro2a cells at 4 ug/ml after 24 hrs by Western blot analysis relative to beta-actin; assay type: cell-based
Neuro2a [28] = assay: Inhibition of JNK phosphorylation in mouse Neuro2a cells at 8 ug/ml after 24 hrs by Western blot analysis relative to beta-actin; assay type: cell-based
Neuro2a [29] = assay: Inhibition of JNK phosphorylation in mouse Neuro2a cells assessed as total protein level at 2 ug/ml after 24 hrs by Western blot analysis relative to beta-actin; assay type: cell-based
Neuro2a [30] = assay: Inhibition of JNK phosphorylation in mouse Neuro2a cells assessed as total protein level at 4 ug/ml after 24 hrs by Western blot analysis relative to beta-actin; assay type: cell-based
Neuro2a [31] = assay: Inhibition of JNK phosphorylation in mouse Neuro2a cells assessed as total protein level at 8 ug/ml after 24 hrs by Western blot analysis relative to beta-actin; assay type: cell-based
[32] = target: T1, MAP kinase p38 (Mus musculus); assay: Inhibition of p38 phosphorylation in mouse Neuro2a cells assessed as total protein level at 4 ug/ml after 24 hrs by Western blot analysis relative to beta-actin; assay type: cell-based
[33] = target: T1, MAP kinase p38 (Mus musculus); assay: Inhibition of p38 phosphorylation in mouse Neuro2a cells assessed as total protein level at 8 ug/ml after 24 hrs by Western blot analysis relative to beta-actin; assay type: cell-based
N2a [34] = assay: as §1; assay type: functional, cell-based
[35] = Cell cycle arrest in mouse Neuro2a cells assessed as accumulation at sub-G1 phase at 2 ug/ml after 72 hrs using propidium iodide staining by flow cytometry analysis (reference value: 4.7%); assay type: functional, cell-based; conditions: N2a
[36] = Cell cycle arrest in mouse Neuro2a cells assessed as accumulation at G0/G1 phase at 2 ug/ml after 72 hrs using propidium iodide staining by flow cytometry analysis (reference value: 41.6%); assay type: functional, cell-based; conditions: N2a
[37] = Cell cycle arrest in mouse Neuro2a cells assessed as accumulation at S phase at 2 ug/ml after 72 hrs using propidium iodide staining by flow cytometry analysis (reference value: 48.5%); assay type: functional, cell-based; conditions: N2a
[38] = Cell cycle arrest in mouse Neuro2a cells assessed as accumulation at G2/M phase at 2 ug/ml after 72 hrs using propidium iodide staining by flow cytometry analysis (reference value: 9.9%); assay type: functional, cell-based; conditions: N2a
[39] = Cell cycle arrest in mouse Neuro2a cells assessed as accumulation at sub-G1 phase at 4 ug/ml after 72 hrs using propidium iodide staining by flow cytometry analysis (reference value: 4.7%); assay type: functional, cell-based; conditions: N2a
[40] = Cell cycle arrest in mouse Neuro2a cells assessed as accumulation at G0/G1 phase at 4 ug/ml after 72 hrs using propidium iodide staining by flow cytometry analysis (reference value: 41.6%); assay type: functional, cell-based; conditions: N2a
[41] = Cell cycle arrest in mouse Neuro2a cells assessed as accumulation at S phase at 4 ug/ml after 72 hrs using propidium iodide staining by flow cytometry analysis (reference value: 48.5%); assay type: functional, cell-based; conditions: N2a
[42] = Cell cycle arrest in mouse Neuro2a cells assessed as accumulation at G2/M phase at 4 ug/ml after 72 hrs using propidium iodide staining by flow cytometry analysis (reference value: 9.9%); assay type: functional, cell-based; conditions: N2a
[43] = Cell cycle arrest in mouse Neuro2a cells assessed as accumulation at sub-G1 phase at 8 ug/ml after 72 hrs using propidium iodide staining by flow cytometry analysis (reference value: 4.7%); assay type: functional, cell-based; conditions: N2a
[44] = Cell cycle arrest in mouse Neuro2a cells assessed as accumulation at G0/G1 phase at 8 ug/ml after 72 hrs using propidium iodide staining by flow cytometry analysis (reference value: 41.6%); assay type: functional, cell-based; conditions: N2a
[45] = Cell cycle arrest in mouse Neuro2a cells assessed as accumulation at S phase at 8 ug/ml after 72 hrs using propidium iodide staining by flow cytometry analysis (reference value: 48.5%); assay type: functional, cell-based; conditions: N2a
[46] = Cell cycle arrest in mouse Neuro2a cells assessed as accumulation at G2/M phase at 8 ug/ml after 72 hrs using propidium iodide staining by flow cytometry analysis (reference value: 9.9%); assay type: functional, cell-based; conditions: N2a
[47] = Cell cycle arrest in mouse Neuro2a cells assessed as accumulation at sub-G1 phase after 72 hrs using propidium iodide staining by flow cytometry analysis; assay type: functional, cell-based; conditions: N2a
N2a [48] = assay: Induction of apoptosis in mouse Neuro2a cells assessed as DNA fragmentation and nuclear condensation after 24 hrs by TUNEL-DAPI co-staining assay; assay type: functional, cell-based
N2a [49] = assay: Induction of apoptosis in mouse Neuro2a cells assessed as activation of caspase-3 using Ac-DEVD-AFC as substrate by fluorometric assay; assay type: functional, cell-based
N2a [50] = assay: Induction of apoptosis in mouse Neuro2a cells assessed as activation of caspase-8 using IETD-AFC as substrate by fluorometric assay; assay type: functional, cell-based
N2a [51] = assay: Induction of apoptosis in mouse Neuro2a cells assessed as activation of caspase-9 using Ac-LEHD-AFC as substrate by fluorometric assay; assay type: functional, cell-based
N2a [52] = assay: Induction of apoptosis in mouse Neuro2a cells assessed as activation of caspase-9 at 4 ug/ml using Ac-LEHD-AFC as substrate by fluorometric assay relative to control; assay type: functional

SMILES: O=C(CCC(=O)c1cccs1)c1cccs1
- IC50 [1]: 343 µg/mL (≈ 1370 µM)
- IC50 [2]: 366 µg/mL (≈ 1460 µM)
- IC50 [3]: > 400 µg/mL
- IC50 (A-375): 115 µg/mL (≈ 459 µM)
- IC50 (PC-3): > 400 µg/mL
- IC50 [4]: > 400 µg/mL

SMILES: Oc1ccc(-n2c(-c3cccs3)ccc2-c2cccs2)cc1
- fold change (FC) (N2a [5]): 1.5
- Activity (N2a [6]): Dose-dependent effect
- growth inhibition (GI) (N2a [7]): Active
- Activity [8]: tde
- inhibition [9]: Dose-dependent effect
- inhibition [10]: Dose-dependent effect
- fold change (FC) (Neuro2a [11]): 0
- fold change (FC) (Neuro2a [12]): 1
- fold change (FC) (Neuro2a [13]): 0.9
- inhibition [14]: inactive
- inhibition (Neuro2a [15]): inactive
- fold change (FC) [16]: 0.8
- fold change (FC) [17]: 0.3
- fold change (FC) [18]: 0.1
- fold change (FC) [19]: 0.8
- fold change (FC) [20]: 0.7
- fold change (FC) [21]: 0.4
- fold change (FC) (Neuro2a [22]): 0
- fold change (FC) (Neuro2a [23]): 0
- fold change (FC) (Neuro2a [24]): 0.6
- fold change (FC) (Neuro2a [25]): 0.6
- fold change (FC) [26]: 1.2
- fold change (FC) (Neuro2a [27]): 1.6
- fold change (FC) (Neuro2a [28]): 2.1
- fold change (FC) (Neuro2a [29]): 1
- fold change (FC) (Neuro2a [30]): 1
- fold change (FC) (Neuro2a [31]): 0.9
- fold change (FC) [32]: 1.6
- fold change (FC) [33]: 1.7
- IC50 [1]: 2.6 µg/mL (≈ 8.04 µM)
- growth inhibition (GI) (N2a [34]): Dose-dependent effect
- IC50 [2]: 39.6 µg/mL (≈ 122 µM)
- IC50 [3]: 36.4 µg/mL (≈ 113 µM)
- IC50 (A-375): 27.6 µg/mL (≈ 85.3 µM)
- IC50 (PC-3): 51.3 µg/mL (≈ 159 µM)
- IC50 [4]: 73.4 µg/mL (≈ 227 µM)
- Activity [35]: 9.1%
- Activity [36]: 39.9%
- Activity [37]: 48.5%
- Activity [38]: 11.6%
- Activity [39]: 19.2%
- Activity [40]: 46.9%
- Activity [41]: 42.6%
- Activity [42]: 10.5%
- Activity [43]: 26.3%
- Activity [44]: 44.4%
- Activity [45]: 38.9%
- Activity [46]: 15.7%
- Activity [47]: Dose-dependent effect
- Activity (N2a [48]): Dose-dependent effect
- Activity (N2a [49]): Dose-dependent effect
- Activity (N2a [50]): Dose-dependent effect
- Activity (N2a [51]): Dose-dependent effect
- fold change (FC) (N2a [52]): 1.4
